Experimental data reported in patent US20220213126A1, “SMALL MOLECULE AUTOPHAGY INDUCERS FOR THE TREATMENT OF CANCER AND NEURODEGENERATIVE DISEASES” (John Wayne Cancer Institute, priority 2019, published 2022).
pIC50: −log10 of the molar value. Values joined by “and” are separate entries in the source; they are usually repeats but may differ in a detail not shown here. Equal values may be shown once. Blank lines part the entries; values can stand above or below the compound they belong to.

Columns and labels:
[1] = Pharmacokinetics of BC-4 and BC-5 in mouse plasma and brain; type: in vivo; conditions: Balb/c mice, single oral dose 5 mg/kg
Description: Pharmacokinetics of BC-4 and BC-5 were compared to BC-1. Pharmacokinetics were assessed in Balb/c mice administered a single oral dose of 5 mg/kg of the indicated compound (Tables 11 and 12).

[2] = Pharmacokinetics of BC-2 and BC-3 in mouse plasma and brain; type: in vivo, mice
Description: Pharmacokinetics were assessed in mice administered a single oral dose of 5 mg/kg of the indicated compound (Tables 9 and 10).

GBM4 = test: GBM cell viability, Alamar blue, 72 hours; type: cell-based; conditions: GBM4, patient-derived cell line
Description: (§1) The effect of VMY-BC-1 was tested on a panel of GBM cell lines. […] In this study 100 μM was the highest drug concentration used, with 3-fold dilution for a 10 dose response curve.

GBM8 = test: GBM cell viability, Alamar blue, 72 hours; type: cell-based; conditions: GBM8, patient-derived cell line
Description: as §1

GL261 = test: GBM cell viability, Alamar blue, 72 hours; type: cell-based; conditions: Mus musculus, GL261, established glioma cell line
Description: as §1

U251 = test: GBM cell viability, Alamar blue, 72 hours; type: cell-based; conditions: Homo sapiens, U-251, U251, established glioma cell line
Description: as §1

U87 = test: GBM cell viability, Alamar blue, 72 hours; type: cell-based; conditions: Homo sapiens, U-87 MG, U87, established glioma cell line
Description: as §1

[3] = Brain, single oral dose 5 mg/kg
[4] = Plasma, single oral dose 5 mg/kg
[5] = single oral dose 5 mg/kg, 0 min
[6] = single oral dose 5 mg/kg, 30 min
[7] = single oral dose 5 mg/kg, 60 min
[8] = single oral dose 5 mg/kg, 180 min
[9] = single oral dose 5 mg/kg, 360 min
[10] = single oral dose 5 mg/kg, 900 min
[11] = single oral dose 5 mg/kg, 1440 min

Brain level, Mean (4) ± SE ([1]; 0 min): BQL | Plasma level, Mean (4) ± SE ([1]; 0 min): BQL | Brain level, Mean (4) ± SE ([1]; 30 min): 164 ± 16 ng/g | Plasma level, Mean (4) ± SE ([1]; 30 min): 255 ± 20 ng,/ml | Brain level, Mean (4) ± SE ([1]; 60 min): 139 ± 14 ng/g | Plasma level, Mean (4) ± SE ([1]; 60 min): 163 ± 20 ng,/ml | Brain level, Mean (4) ± SE ([1]; 180 min): BQL | Plasma level, Mean (4) ± SE ([1]; 180 min): 36 ± 6 ng,/ml | Brain level, Mean (4) ± SE ([1]; 360 min): BQL | Plasma level, Mean (4) ± SE ([1]; 360 min): 22 ± 3 ng,/ml | Brain level, Mean (4) ± SE ([1]; 900 min): BQL | Plasma level, Mean (4) ± SE ([1]; 900 min): BQL | Brain level, Mean (4) ± SE ([1]; 1440 min): BQL | Plasma level, Mean (4) ± SE ([1]; 1440 min): BQL | Tmax ([1]; Brain): 30 min | T½ ([1]; Brain): 127 min | terminal elimination rate constant (lambda z) ([1]; Brain): 0.00546 min⁻¹ | AUC(0-t) ([1]; Plasma): 25300 ng·min/mL | AUC(inf) ([1]; Plasma): 28300 ng·min/mL | Cmax ([1]; Plasma): 255 ng/mL | Tmax ([1]; Plasma): 30 min | T½ ([1]; Plasma): 94.5 min | terminal elimination rate constant (lambda z) ([1]; Plasma): 0.00734 min⁻¹
SMILES: CC=C(c1ccc(OC)cc1)C(CC)c1cc(OC)cc(B(O)O)c1 (racemic) [BC-4]
Concentrations in plasma vs brain [1]: higher concentrations in plasma than brain

AUC(0-inf) ([2]; mouse, in vivo, po, 5 mg/kg): 2000 ng·h/mL | AUC(inf) ([2]; mouse, in vivo, po, 5 mg/kg): 504000 ng·min/mL | Cmax ([2]; mouse, in vivo, po, 5 mg/kg): 841 ng/mL and 4140 ng/g | Tmax ([2]; mouse, in vivo, po, 5 mg/kg): 60 min | T½ ([2]; mouse, in vivo, po, 5 mg/kg): 54.8 min | concentration at 30 min ([2]; mouse, in vivo, po, 5 mg/kg): 841 ng/mL and 3420 ng/g | concentration at 60 min ([2]; mouse, in vivo, po, 5 mg/kg): 732 ng/mL and 4140 ng/g | concentration at 180 min ([2]; mouse, in vivo, po, 5 mg/kg): 281 ng/mL and 983 ng/g | concentration at 360 min ([2]; mouse, in vivo, po, 5 mg/kg): 43 ng/mL and 94 ng/g | Tmax ([2]; mouse, in vivo, po, 5 mg/kg, Tmax): 30 min | half-life ([2]; mouse, in vivo, po, 5 mg/kg, T½): 72.8 min
SMILES: CCOc1ccc(/C=C/c2cc(OC)cc(B(O)O)c2)cc1 [BC-2, (E)-(3-(4-ethoxystyryl)-5-methoxyphenyl) Boronic Acid]
Concentration in brain vs plasma ([2]; mouse, in vivo, po, 5 mg/kg): higher concentration in brain than in plasma

Kd (Lambda Z) [2, 3]: 0.000342 s⁻¹ | Tmax [2, 3]: 30 min | T½ [2, 3]: 33.8 min | AUC(0-t) [2, 4]: 25500 ng·min/mL | AUC(inf) [2, 4]: 26300 ng·min/mL | Cmax [2, 4]: 439 ng/mL | Kd (Lambda Z) [2, 4]: 0.000358 s⁻¹ | Tmax [2, 4]: 30 min | T½ [2, 4]: 32.3 min | Brain level, Mean (4) ± SE [2, 5]: BQL | Plasma level, Mean (4) ± SE [2, 5]: BQL | Brain level, Mean (4) ± SE [2, 6]: 1951 ± 323 ng/g | Plasma level, Mean (4) ± SE [2, 6]: 439 ± 67 ng/mL | Brain level, Mean (4) ± SE [2, 7]: 1233 ± 219 ng/g | Plasma level, Mean (4) ± SE [2, 7]: 217 ± 28 ng/mL | Brain level, Mean (4) ± SE [2, 8]: 95 ± 26 ng/g | Plasma level, Mean (4) ± SE [2, 8]: 17 ± 10 ng/mL | Brain level, Mean (4) ± SE [2, 9]: BQL | Plasma level, Mean (4) ± SE [2, 9]: BQL | Brain level, Mean (4) ± SE [2, 10]: BQL | Plasma level, Mean (4) ± SE [2, 10]: BQL | Brain level, Mean (4) ± SE [2, 11]: BQL | Plasma level, Mean (4) ± SE [2, 11]: BQL
SMILES: COc1cc(/C=C/c2ccc(F)cc2)cc(B(O)O)c1 [BC-3]
Concentration in brain vs plasma ([2]; single oral dose 5 mg/kg): higher concentration in brain than in plasma

Brain level, Mean (4) ± SE ([1]; 0 min): BQL | Plasma level, Mean (4) ± SE ([1]; 0 min): BQL | Brain level, Mean (4) ± SE ([1]; 30 min): 142 ± 32 ng/g | Plasma level, Mean (4) ± SE ([1]; 30 min): 1599 ± 40 ng,/ml | Brain level, Mean (4) ± SE ([1]; 60 min): 205 ± 39 ng/g | Plasma level, Mean (4) ± SE ([1]; 60 min): 1524 ± 106 ng,/ml | Brain level, Mean (4) ± SE ([1]; 180 min): 105 ± 26 ng/g | Plasma level, Mean (4) ± SE ([1]; 180 min): 742 ± 91 ng,/ml | Brain level, Mean (4) ± SE ([1]; 360 min): 28 ± 6 ng/g | Plasma level, Mean (4) ± SE ([1]; 360 min): 290 ± 35 ng,/ml | Brain level, Mean (4) ± SE ([1]; 900 min): BQL | Plasma level, Mean (4) ± SE ([1]; 900 min): 49 ± 10 ng,/ml | Brain level, Mean (4) ± SE ([1]; 1440 min): BQL | Plasma level, Mean (4) ± SE ([1]; 1440 min): 15 ± 9 ng,/ml | Tmax ([1]; Brain): 60 min | T½ ([1]; Brain): 103 min | terminal elimination rate constant (lambda z) ([1]; Brain): 0.00672 min⁻¹ | AUC(0-t) ([1]; Plasma): 376000 ng·min/mL | AUC(inf) ([1]; Plasma): 381000 ng·min/mL | Cmax ([1]; Plasma): 1600 ng/mL | Tmax ([1]; Plasma): 30 min | T½ ([1]; Plasma): 251 min | terminal elimination rate constant (lambda z) ([1]; Plasma): 0.00276 min⁻¹
SMILES: CCC(=C(c1ccccc1)c1ccc(OC)cc1)c1cc(OC)cc(B(O)O)c1 [BC-5]
Concentrations in plasma vs brain [1]: higher concentrations in plasma than brain

pIC50 (U251): 4.92 | pIC50 (U87): 4.40 | Drug level in plasma and brain, all time points ([2]; single oral dose 5 mg/kg): below quantification level | Brain level, Mean (4) ± SE [2, 5]: BQL | Plasma level, Mean (4) ± SE [2, 5]: BQL | Brain level, Mean (4) ± SE [2, 6]: BQL | Plasma level, Mean (4) ± SE [2, 6]: BQL | Brain level, Mean (4) ± SE [2, 7]: BQL | Plasma level, Mean (4) ± SE [2, 7]: BQL | Brain level, Mean (4) ± SE [2, 8]: BQL | Plasma level, Mean (4) ± SE [2, 8]: BQL | Brain level, Mean (4) ± SE [2, 9]: BQL | Plasma level, Mean (4) ± SE [2, 9]: BQL | Brain level, Mean (4) ± SE [2, 10]: BQL | Plasma level, Mean (4) ± SE [2, 10]: BQL | Brain level, Mean (4) ± SE [2, 11]: BQL | Plasma level, Mean (4) ± SE [2, 11]: BQL
SMILES: Oc1ccc(C=Cc2cc(O)cc(O)c2)cc1 [Resveratrol, resveratrol, reference compound]
pIC50 (GBM4): 4.39 | pIC50 (GBM8): 4.58 | pIC50 (GL261): 4.98
